From PubChem BioAssay (NCI) come the findings set out here.

Structures are written as SMILES. “And” between values parts separate entries of the source, which are not always exact repeats. Equal values may be shown once.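 1) Cells in 96-well plates. 2) Compound, 48 h, 5 concentrations. 3) Linear interpolation between surrounding doses. 4) Unreached endpoint = highest concentration. GI50: concentration for 50% inhibition of growth. TGI: total growth inhibition.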

Some test systems named below: 786-0 renal; CCRF-CEM leukemia; COLO 205 colon; HCT-116 colon; HT29 colon; IGROV1 ovarian; NCI-H23 lung; A498 renal; SK-MEL-5 melanoma.
Test in all cases: NCI-60 cell line screen, 48 h

In the case of `O=C1C2=C(CCCCC2)C2CCCCC12O` (stereo not drawn), the TGI with 786-0 renal, with CCRF-CEM leukemia, with COLO 205 colon, in the assay on HCT-116 colon, in the assay on HT29 colon and in the assay with IGROV1 ovarian was over 100 µM throughout. Moreover, the TGI with NCI-H23 lung was over 100 µM.

On to `O=C1OC(c2ccc(Cl)cc2)(c2ccc(Cl)cc2)c2c1ccc1ccccc21`, for which the TGI with A498 renal, with CCRF-CEM leukemia, with COLO 205 colon, in the assay with HT29 colon, with IGROV1 ovarian and in the assay on NCI-H23 lung was over 100 µM throughout. Moreover, the TGI in the assay with SK-MEL-5 melanoma is over 100 µM.

In the case of `N/C(=N\N=C\c1cc2c(cc1Cl)OCO2)NO`, the TGI with A498 renal, in the assay on CCRF-CEM leukemia, in the assay on COLO 205 colon, in the assay on HCT-116 colon, in the assay on HT29 colon and in the assay on IGROV1 ovarian was over 100 µM in each case. Also, the values for the TGI in the assay with NCI-H23 lung and in the assay on SK-MEL-5 melanoma were over 100 µM and 58.9 µM, respectively.

In the case of `CC(=O)Nc1ccc(-c2nnc(SCC(=O)Nc3cccc([N+](=O)[O-])c3)o2)cc1`, the TGI with 786-0 renal is 40.6 µM; with CCRF-CEM leukemia, over 100 µM; with COLO 205 colon it was 33.8 µM; in the assay on HCT-116 colon, 27.4 µM; in the assay on HT29 colon it was 37.2 µM; in the assay on IGROV1 ovarian it was 31.4 µM. For the same compound, the TGI with NCI-H23 lung was 21.2 µM; in the assay with SK-MEL-5 melanoma it was 27.1 µM.

`C/C(=N\NC(=O)c1cccnc1)c1cccc(/C(C)=N/NC(=O)c2cccnc2)n1.CC(=O)[O-].CC(=O)[O-].[Zn+2]`: the TGI was over 100 µM with 786-0 renal; over 100 µM in the assay with A498 renal; 65.6 µM in the assay on CCRF-CEM leukemia; over 100 µM in the assay with COLO 205 colon; over 100 µM in the assay with HCT-116 colon; over 100 µM in the assay on HT29 colon. Besides, the TGI with IGROV1 ovarian is over 43.4 µM; with NCI-H23 lung, over 67 µM; in the assay on SK-MEL-5 melanoma, over 28.6 µM. The GI50 in the assay on A498 renal is over 100000 nM; in the assay with CCRF-CEM leukemia it was 783 nM; in the assay on COLO 205 colon, 904 nM; with HCT-116 colon it was 1680 nM; with HT29 colon, 5.64 µM; in the assay with IGROV1 ovarian it was 10.1 µM. The GI50 in the assay with SK-MEL-5 melanoma is 12.9 µM.

For the compound `N#Cc1ccc(Nc2cnc3ccc(N)cc3n2)cc1`, the TGI in the assay with 786-0 renal, in the assay with CCRF-CEM leukemia, in the assay with COLO 205 colon, with HCT-116 colon, in the assay on HT29 colon and in the assay with NCI-H23 lung was over 100 µM each time. This compound registered a TGI with SK-MEL-5 melanoma of over 100 µM.

Turning to `COC(=O)[C@@]12OC[C@]34C([C@@H](O)C1O)[C@@]1(C)CC(=O)C(O)=C(C)C1C[C@H]3OC(=O)[C@H](OC(=O)/C=C(/c1ccccc1)C(F)(F)F)[C@H]42` (stereo partly drawn), the TGI in the assay on 786-0 renal was over 25 µM; in the assay on A498 renal it was 8.45 µM; in the assay with CCRF-CEM leukemia, over 25 µM; in the assay with COLO 205 colon it was 21.1 µM; in the assay on HCT-116 colon it was 12.3 µM; in the assay with HT29 colon it was 15 µM. The TGI with IGROV1 ovarian was 11.5 µM; in the assay with NCI-H23 lung, 6.73 µM; with SK-MEL-5 melanoma, 13.4 µM.

Regarding `C=C1C(=O)O[C@@H]2OC3(C)CCC4C(C)CCC1C42OO3` (stereo partly drawn), the GI50 in the assay on A498 renal is 2570 nM; in the assay on COLO 205 colon, 3990 nM; with HCT-116 colon it was 2470 nM; in the assay with HT29 colon it was 3.21 µM; in the assay on IGROV1 ovarian, 4.71 µM; with NCI-H23 lung, 7.77 µM. For the same compound, the TGI with A498 renal is 6.56 µM and 10.6 µM; in the assay with CCRF-CEM leukemia, 2.35 µM and 5.26 µM; in the assay on COLO 205 colon, 12.4 µM and 10.8 µM; with HCT-116 colon, 10.2 µM and 3.52 µM; with HT29 colon, 11.2 µM and 6.73 µM; in the assay with IGROV1 ovarian, 16.7 µM and 12.7 µM. Moreover, the TGI with NCI-H23 lung was 22 µM and 17.5 µM; in the assay with SK-MEL-5 melanoma, 17.2 µM.

On to `C=CC[N+](CCO)(CCO)CCCCCCCCCCCCCCCCCC`, for which the TGI was 42.5 µM in the assay on A498 renal; 3.76 µM in the assay with CCRF-CEM leukemia; 11 µM with COLO 205 colon; 14.7 µM in the assay on HCT-116 colon; 12 µM with HT29 colon; 3.78 µM with IGROV1 ovarian. In addition, the TGI worked out at 44.9 µM with NCI-H23 lung and 25.6 µM in the assay with SK-MEL-5 melanoma.

With `Cc1ccc(S(=O)(=O)C2c3nc4ccccc4cc3-c3nc4ccccc4nc32)cc1` (stereo not drawn), the TGI in the assay with 786-0 renal, in the assay on A498 renal, with CCRF-CEM leukemia, with COLO 205 colon, in the assay with HCT-116 colon and in the assay on IGROV1 ovarian was over 100 µM each time. For the same compound, the TGI in the assay with NCI-H23 lung and with SK-MEL-5 melanoma was over 100 µM each time.

Take `Nc1nn(CC(O)CO)c(=O)s1` (stereo not drawn): the TGI in the assay with A498 renal, in the assay with CCRF-CEM leukemia, with COLO 205 colon, in the assay with HCT-116 colon, with HT29 colon and with IGROV1 ovarian was over 100 µM each time. Further, the TGI in the assay with NCI-H23 lung and with SK-MEL-5 melanoma was over 100 µM throughout.

With `C[C@H](CN1CC(=O)NC(=O)C1)N1CC(=O)NC(=O)C1`, the TGI was over 100 µM in the assay on A498 renal; over 100 µM in the assay with CCRF-CEM leukemia; over 72.8 µM in the assay with COLO 205 colon; over 100 µM with HCT-116 colon; over 100 µM with HT29 colon; over 100 µM in the assay on IGROV1 ovarian. Further, the TGI in the assay on NCI-H23 lung and in the assay on SK-MEL-5 melanoma was over 100 µM throughout.
